Conditions: Liquid; for mass density: 298.15 K, 101.33 kPa

COC(=O)OC [dimethyl carbonate]
Conditions | mass density [kg/m3] | vapor or sublimation pressure [kPa]
– | 1063.38 | –
336.68 K | – | 40
344.38 K | – | 53.33
350.66 K | – | 66.66
356.01 K | – | 79.99
360.68 K | – | 93.32

CCO [ethanol]
Conditions | mass density [kg/m3]
– | 785.23

Ebulliometric method (Recirculating still)
Conditions | vapor or sublimation pressure [kPa]
329.7 K | 40
336.11 K | 53.33
341.28 K | 66.66
345.65 K | 79.99
349.45 K | 93.32

CO [methanol]
Conditions | mass density [kg/m3]
– | 786.67

Ebulliometric method (Recirculating still)
Conditions | vapor or sublimation pressure [kPa]
315.74 K | 40
315.87 K | 40
322.17 K | 53.33
322.25 K | 53.33
327.37 K | 66.66
327.45 K | 66.66
331.75 K | 79.99
331.84 K | 79.99
335.56 K | 93.32
335.66 K | 93.32

Reference: the NIST ThermoML archive (doi:10.1021/je0601309)
